Like-named read-outs stand apart in the source and are kept apart here. Peptide text beside a SMILES is read from it. * marks the point of attachment. Cbz = O=C(OCc1ccccc1)*
Assays:
CCR2-HaloTag-HiBiT [1] = assay: Lytic HiBiT assay with inhibitor pretreatment (2 h) then vehicle or HaloPROTAC3 (3 h); assay type: cell-based, human; settings: 5 µg plasmid; for HaloPROTAC3-mediated CCR2 degradation after pretreatment with the inhibitor: inhibitor 2 h pretreatment, then 1 µM HaloPROTAC3 3 h
Description: To investigate the mechanism of action of HaloPROTAC3-induced degradation of CCR2-HaloTag-HiBiT, we pretreated the cells with a variety of inhibitors. […] After 2 h, the cells were treated with vehicle or HaloPROTAC3 (1µM) and degradation was measured after 3 h of HaloPROTAC3 treatment or vehicle control.
Next, we explored whether degradation occurs via the proteasomal or the lysosomal pathway. […] Finally, we included cycloheximide as an inhibitor of protein synthesis.
Fractional RLU values were calculated from the resulting baseline-corrected values by normalizing all values at a given time point to the vehicle-control value. For lytic HiBiT assays, data are presented as % of vehicle-control; for real-time HiBiT assays, data are presented as fractional RLUs, which corresponds to the ratio between the baseline-corrected RLU values of a compound and the RLU values of the vehicle at any given time point. […] To calculate the degradation rate (K) from real-time HiBiT assays, the degradation curves were fitted to a one-phase exponential decay model following the equation Y = (Y0 − Plateau)e^−Kt + Plateau.

CCR2-HaloTag-HiBiT [2] = biological target: T1, CCR2-HaloTag-HiBiT (UniProt P0A3G2+P41597, A155T/A167V/A172T/A224E/C128F/C176G/D78G/E160K/E257K/H272N/K175M/K195N/L47V/L88M/N227D/S58T/T264A/Y273L/Y87F); assay: xCELLigence label-free impedance assay, CCL2 stimulation of HEK293T cells transfected with CCR2-HaloTag-HiBiT; settings: HEK293T cells expressing CCR2-HaloTag-HiBiT
T1 sequence (P41597+P0A3G2 fused with the stated changes): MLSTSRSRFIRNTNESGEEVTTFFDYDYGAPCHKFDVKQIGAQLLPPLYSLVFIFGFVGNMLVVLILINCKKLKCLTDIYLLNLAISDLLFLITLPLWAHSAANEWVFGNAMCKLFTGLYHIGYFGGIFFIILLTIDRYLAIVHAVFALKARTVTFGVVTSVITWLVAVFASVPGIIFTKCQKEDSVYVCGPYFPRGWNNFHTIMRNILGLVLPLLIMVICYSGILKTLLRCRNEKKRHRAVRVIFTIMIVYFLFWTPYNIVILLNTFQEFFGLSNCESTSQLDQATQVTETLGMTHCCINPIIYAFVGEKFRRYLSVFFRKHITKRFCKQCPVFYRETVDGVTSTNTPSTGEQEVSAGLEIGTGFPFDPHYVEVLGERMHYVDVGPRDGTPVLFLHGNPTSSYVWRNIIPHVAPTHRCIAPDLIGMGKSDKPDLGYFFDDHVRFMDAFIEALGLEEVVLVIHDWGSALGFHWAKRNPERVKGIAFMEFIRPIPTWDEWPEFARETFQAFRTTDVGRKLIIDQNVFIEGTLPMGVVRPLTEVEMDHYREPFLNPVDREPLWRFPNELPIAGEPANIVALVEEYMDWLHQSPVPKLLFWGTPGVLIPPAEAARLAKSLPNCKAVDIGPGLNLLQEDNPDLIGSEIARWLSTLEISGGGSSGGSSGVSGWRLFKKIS

CCR2-HaloTag-HiBiT [3] = biological target: T1, CCR2-HaloTag-HiBiT; assay type: cell-based, human; settings: for Dmax ± SEM (maximal degradation): determined at 1 µM, negative values represent an increase in CCR2 levels
CCR2-HaloTag-HiBiT [4] = biological target: T1, CCR2-HaloTag-HiBiT; assay type: cell-based, human
CCR2-HaloTag-HiBiT [5] = biological target: T2, CCR2-HaloTag-HiBiT (Homo sapiens, UniProt P41597); assay type: cell-based
T2 construct: host or cells: A549 cells, lentiviral transduction, single-cell clones #25, #26, #27
T2 sequence (P41597 other isoform, or with tags, fused parts or gaps): as the sequence (P41597+P0A3G2 fused with the stated changes) above
Source text: While the HiBiT luminescence approach provides a good platform for high-throughput screening of targeted protein degradation, integral membrane protein degradation studies benefit from information about their localization. […] To mitigate the need for transfection, we transduced A549 cells with lentiviral particles for stable integration of expression cassettes for CCR2-HaloTag-HiBiT expression constructs, followed by antibiotic selection and limiting dilution to generate single-cell clones.
A549 cells were seeded at 400,000 cells per well in 6 well dishes to be approximately 50% confluent the next day. For seeding 1.5 mL of cell-containing medium was used. A total of 500 µL of lentiviral particles and 1.6 µL of polybrene (Sigma-Aldrich, Merck, Darmstadt, Germany) were added on top, and cells were incubated overnight. The next day, cells were washed two to three times in PBS and a growth medium containing 100 µg/mL of hygromycin B at 100 µg/mL was added. Cells were incubated until non-transduced cells were dead or until transduced cells were confluent (in which case they were split into a bigger flask in a hygromycin selection medium). After selection, cells were diluted to 0.5 cells/200 µL in a growth medium containing 20% FCS, and 96 well plates were seeded with 200 µL per well. Single-cell clones were grown back up to bigger populations and screened by immunofluorescence for HiBiT expression.
A549 CCR2b-HALO-HiBiT expressing cells were seeded onto 384-well plates suitable for high-throughput microscopy (PerkinElmer, Groningen, The Netherlands; Corning, NY, USA) with a density ranging from 2000–4000 cells per well. The next day, plates were treated with different concentrations of HaloPROTAC3 or ent-HaloPROTAC3 using a Tecan D300e digital dispenser. […] Cells were then washed three times in PBS and simultaneously permeabilized and blocked for an hour using a modified blocking buffer (0.1% Triton (v/v), 1% BSA (w/v) (Sigma, A7030, Merck, Darmstadt, Germany)). […] Plates were imaged on either Yokogawa CV7000 or CV8000 systems with appropriate settings for detection of each relevant channel. Images were analyzed using Columbus image analysis.

CCR2-HaloTag-HiBiT [6] = biological target: T1, CCR2-HaloTag-HiBiT; assay type: cell-based, human; settings: 1 µM pretreatment 3 h, then 60 nM CCL2; HEK293T CCR2-HaloTag-HiBiT

## Nc1cccc2c1C(=O)N(C1CCC(=O)NC1=O)C2=O (stereo not shown) [pomalidomide]
CCR2-HaloTag-HiBiT [1]
  HaloPROTAC3-mediated CCR2 degradation after pretreatment with the inhibitor: neither pomalidomide nor idasanutlin had an effect

## CCN(CC)CCCC(C)Nc1ccnc2cc(Cl)ccc12 (stereo not shown) [chloroquine, Chloroquine diphosphate]
CCR2-HaloTag-HiBiT [1]; inhibitor 2 h then vehicle 3 h
  effect on receptor levels, inhibitor on its own: not affected

## CC(C)C[C@H](NC(=O)[C@H](Cc1ccccc1)NC(=O)c1cnccn1)B(O)O [bortezomib]
CCR2-HaloTag-HiBiT [1]
  HaloPROTAC3-mediated CCR2 degradation after pretreatment with the inhibitor: partially or fully recovered
CCR2-HaloTag-HiBiT [1]; inhibitor 2 h then vehicle 3 h
  reduction in CCR2 levels, exclusive treatment with inhibitor: ~ 17%

## CCL2: endogenous chemokine ligand of CCR2
CCR2-HaloTag-HiBiT [2]
  efficacy (Emax) of CCL2: 68 ± 8%
  pEC50 of CCL2-induced impedance increase: 7.6 ± 0.2
CCR2-HaloTag-HiBiT [2]; read-out: EC50 of CCL2-induced impedance increase
  EC50: 29 nM

## CC(C)C[C@@H](C=O)NC(=O)[C@H](CC(C)C)NC(=O)[C@H](CC(C)C)NC(=O)OCc1ccccc1 [MG-132] (Cbz-Leu-Leu-Leu-aldehyde)
CCR2-HaloTag-HiBiT [1]
  HaloPROTAC3-mediated CCR2 degradation after pretreatment with the inhibitor: partially or fully recovered
CCR2-HaloTag-HiBiT [1]; inhibitor 2 h then vehicle 3 h
  reduction in CCR2 levels, exclusive treatment with inhibitor: not observed

## Cc1ncsc1-c1ccc(CNC(=O)[C@@H]2C[C@@H](O)CN2C(=O)[C@H](C(C)C)N2Cc3ccccc3C2=O)c(OCCOCCOCCOCCCCCCCl)c1 [HaloPROTAC3]
CCR2-HaloTag-HiBiT [3]; 1 µM, 24 h, 5 µg plasmid
  decrease in CCR2 levels (luminescent signal) compared to vehicle control: ~ 35%
CCR2-HaloTag-HiBiT [3]; 1 µM, after 4 h, 5 µg plasmid (Figure S4)
  CCR2 degraded, time course: Approximately 20%
CCR2-HaloTag-HiBiT [3]; 1 µM, after 24 h, 5 µg plasmid (Figure S4)
  CCR2 degraded, time course: 26%
CCR2-HaloTag-HiBiT [3]; 1 µM, by 6 h, 5 µg plasmid (Figure S4)
  CCR2 degraded, time course (maximum degradation): 24%
CCR2-HaloTag-HiBiT [3]; 24 h, 5 µg plasmid
  pDC50 ± SEM (apparent potency of degradation): 7.4 ± 0.01
CCR2-HaloTag-HiBiT [3]; 24 h, 5 µg plasmid, read-out: DC50 (apparent degradation potency) (converted)
  DC50: 42 nM
CCR2-HaloTag-HiBiT [3]; 24 h
  Dmax ± SEM (maximal degradation): 38 ± 5%
CCR2-HaloTag-HiBiT [3]; summary over lytic and real-time HiBiT assays (Figure 2 and Figure 3)
  degradation of CCR2-HaloTag-HiBiT depending on the protein expression levels: 30–80%
CCR2-HaloTag-HiBiT [4]; 1 µM (Figure 3B,F)
  degradation achieved after 3 h treatment: > 70%
CCR2-HaloTag-HiBiT [4]; 1 µM HaloPROTAC3 in absence or presence of 10 µM cycloheximide
  degradation rate compared with cycloheximide on its own: higher than that determined by cycloheximide on its own
CCR2-HaloTag-HiBiT [4]; 1 µM, 1 µg plasmid
  degradation rate (Kdeg): 0.000131 ± 1.1e-05 s⁻¹
  maximal degradation at 24 h: 89 ± 2%
CCR2-HaloTag-HiBiT [4]; 1 µM, 3 µg plasmid
  degradation reached after 9 h of treatment up to 24 h: ≥ 90%
  maximal degradation at 24 h: 76 ± 4%
  time Dmax was maintained: ~ 15 h
CCR2-HaloTag-HiBiT [4]; 1 µM, 3 µg plasmid, one-phase exponential decay
  degradation rate (Kdeg): 0.000144 ± 1.1e-05 s⁻¹
CCR2-HaloTag-HiBiT [4]; 1 µM, 5 µg plasmid
  degradation rate (Kdeg): 0.000114 ± 4.72e-05 s⁻¹
  maximal degradation at 24 h: 60 ± 6%
CCR2-HaloTag-HiBiT [4]; 3 µg plasmid, Dmax at each concentration
  degradation potency (pDmax50): 6.7 ± 0.1
CCR2-HaloTag-HiBiT [1]; 1 µM HaloPROTAC3, 3 h
  CCR2 degradation by HaloPROTAC3 in the absence of inhibitor: 32%
CCR2-HaloTag-HiBiT [5]; A549 clone #25, 1 µM, 24 h
  maximal degradation (HiBiT antibody signal): 39%
CCR2-HaloTag-HiBiT [5]; A549 clone #25, 24 h
  DC50: 17.1 nM
CCR2-HaloTag-HiBiT [5]; A549 clone #26, 1 µM, 24 h
  reduction of CCR2-HaloTag-HiBiT levels (HiBiT antibody signal): approximately 80%
CCR2-HaloTag-HiBiT [5]; A549 clone #26, 24 h
  DC50: 18.1 nM
  pDC50: 7.8 ± 0.1
CCR2-HaloTag-HiBiT [5]; A549 clone #27, 1 µM, 24 h
  reduction of CCR2-HaloTag-HiBiT levels (HiBiT antibody signal): approximately 80%
CCR2-HaloTag-HiBiT [5]; A549 clone #27, 24 h
  DC50: 11.8 nM
  pDC50: 8.0 ± 0.2
CCR2-HaloTag-HiBiT [6]
  remaining CCL2 response (AUC first 20 min, normalized to 60 nM CCL2 alone): 25 ± 19%

## CO/C1=C\C(C)=C\[C@@H](C)[C@@H](O)[C@@H](C)C/C(C)=C/C=C/[C@H](OC)[C@@H]([C@@H](C)[C@@H](O)[C@H](C)[C@@]2(O)C[C@@H](O)[C@H](C)[C@@H](C(C)C)O2)OC1=O [Bafilomycin-A1, Bafilomycin A1]
CCR2-HaloTag-HiBiT [1]; inhibitor 2 h then vehicle 3 h
  increase in CCR2-HaloTag-HiBiT levels, exclusive treatment with inhibitor: > 30%

## Cc1ncsc1-c1ccc(CNC(=O)[C@H]2C[C@H](O)CN2C(=O)[C@@H](C(C)C)N2Cc3ccccc3C2=O)c(OCCOCCOCCOCCCCCCCl)c1 [ent-HaloPROTAC3]
CCR2-HaloTag-HiBiT [3]; 1 µM, 24 h, 5 µg plasmid
  decrease in CCR2 levels (luminescent signal) compared to vehicle control: comparable to vehicle control
CCR2-HaloTag-HiBiT [3]; 24 h
  Dmax ± SEM (maximal degradation): −1 ± 4%
CCR2-HaloTag-HiBiT [3]; multiple concentrations, 24 h, maximal level reached
  CCR2 levels upon titration of compound (normalized to vehicle control 100%): remained unchanged
CCR2-HaloTag-HiBiT [4]; 1 µM, all DNA plasmid concentrations (1, 3, 5 µg; Figure S5)
  CCR2 levels over 24 h: remained unchanged
CCR2-HaloTag-HiBiT [4]; 3 µg plasmid, 24 h
  change of CCR2 levels, multiple concentrations: did not change CCR2 levels at any of the concentrations tested
CCR2-HaloTag-HiBiT [5]; 1 µM, 24 h, A549 clones
  effect on HiBiT immunofluorescence signal: appeared to increase the signal throughout the cell
CCR2-HaloTag-HiBiT [6]
  remaining CCL2 response (AUC first 20 min, normalized to 60 nM CCL2 alone): 85 ± 10%

## COc1cc(C(=O)O)ccc1NC(=O)[C@@H]1N[C@@H](CC(C)(C)C)[C@](C#N)(c2ccc(Cl)cc2F)[C@H]1c1cccc(Cl)c1F [idasanutlin]
CCR2-HaloTag-HiBiT [1]
  HaloPROTAC3-mediated CCR2 degradation after pretreatment with the inhibitor: neither pomalidomide nor idasanutlin had an effect

## NS(=O)(=O)OC[C@@H]1C[C@@H](n2ccc3c(N[C@H]4CCc5ccccc54)ncnc32)C[C@@H]1O [MLN-4924, Pevonedistat]
CCR2-HaloTag-HiBiT [1]
  HaloPROTAC3-mediated CCR2 degradation after pretreatment with the inhibitor: fully prevented
CCR2-HaloTag-HiBiT [1]; inhibitor 2 h then vehicle 3 h
  reduction in CCR2 levels, exclusive treatment with inhibitor: 24%

## C[C@@H]1C[C@@H]([C@H](O)CC2CC(=O)NC(=O)C2)C(=O)[C@@H](C)C1 [cycloheximide]
CCR2-HaloTag-HiBiT [4]; 10 µM cycloheximide, up to 24 h
  native degradation rate (Knative) of CCR2-HaloTag-HiBiT: 0.25 ± 0.01 h⁻¹
CCR2-HaloTag-HiBiT [1]
  HaloPROTAC3-mediated CCR2 degradation after pretreatment with the inhibitor: not affected
CCR2-HaloTag-HiBiT [1]; inhibitor 2 h then vehicle 3 h
  reduction in CCR2 levels, exclusive treatment with inhibitor: more than 50%

— publication PMC11354370, “Inducing Receptor Degradation as a Novel Approach to Target CC Chemokine Receptor 2 (CCR2)” (International Journal of Molecular Sciences, 2024)
